Results: BindingDB's records for doi:10.1124/jpet.301.1.322 (Sanofi Synthelabo, 2002)
Substitutions are numbered along the chain they refer to. Where “and” joins values, the source holds several entries; their conditions need not be identical. Equal entries are not always repeated.

Experiments:
[1] = biological target: T1, Corticotropin-releasing factor receptor 1 (Rattus norvegicus, UniProt P35353)
T1 sequence (P35353 whole entry): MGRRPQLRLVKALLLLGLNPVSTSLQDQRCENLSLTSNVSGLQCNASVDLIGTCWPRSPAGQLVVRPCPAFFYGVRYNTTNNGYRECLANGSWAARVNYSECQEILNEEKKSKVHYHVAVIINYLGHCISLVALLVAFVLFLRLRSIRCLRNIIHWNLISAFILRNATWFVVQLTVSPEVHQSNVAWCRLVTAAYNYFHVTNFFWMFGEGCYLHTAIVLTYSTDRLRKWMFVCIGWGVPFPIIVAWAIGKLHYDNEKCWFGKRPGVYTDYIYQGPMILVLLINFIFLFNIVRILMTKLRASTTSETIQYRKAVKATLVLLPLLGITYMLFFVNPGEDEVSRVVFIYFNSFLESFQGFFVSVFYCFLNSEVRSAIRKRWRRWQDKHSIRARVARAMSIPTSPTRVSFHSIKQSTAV

[2] = biological target: T2, Corticotropin-releasing factor receptor 1 (Homo sapiens, UniProt P34998)
T2 sequence (P34998 whole entry): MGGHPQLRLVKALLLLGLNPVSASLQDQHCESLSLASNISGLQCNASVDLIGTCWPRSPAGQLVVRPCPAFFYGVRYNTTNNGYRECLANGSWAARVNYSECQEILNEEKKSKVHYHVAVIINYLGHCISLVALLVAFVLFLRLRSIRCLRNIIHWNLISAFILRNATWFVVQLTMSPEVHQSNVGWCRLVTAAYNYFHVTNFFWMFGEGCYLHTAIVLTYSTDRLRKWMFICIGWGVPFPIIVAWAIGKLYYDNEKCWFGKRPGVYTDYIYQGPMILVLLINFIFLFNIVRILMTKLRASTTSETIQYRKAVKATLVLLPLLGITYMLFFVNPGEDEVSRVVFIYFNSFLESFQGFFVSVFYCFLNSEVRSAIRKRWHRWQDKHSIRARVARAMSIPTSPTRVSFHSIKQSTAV

[3] = biological target: T3, Corticotropin-releasing factor receptor 1 (Mus musculus, UniProt P35347)
T3 sequence (P35347 whole entry): T1 sequence (P35353 whole entry) with R3Q, R29Q, N32S, T36A, V118I, H252Y

Ki [1]: 1.7 nM and 1 nM | Ki [2]: 0.83 nM | Ki [3]: 1.26 nM
SMILES: Cc1ccccc1C(=O)Nc1ccc(C(=O)N2CCCC(O)c3cc(Cl)ccc32)c(C)c1 (stereo not drawn)
